How the values were obtained:
Trametinib = compound: CC(=O)Nc1cccc(-n2c(=O)n(C3CC3)c(=O)c3c(Nc4ccc(I)cc4F)n(C)c(=O)c(C)c32)c1 [Trametinib]; settings: max 1 µM
How it was run: (§1)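 Cancer cell lines were seeded into 1536-well plates in 7.5 μl medium (DMEM/F12 or RPMI, 10% FBS), held 24 hours at 37°C and 5% CO2, and dosed for 72 hours with final DMSO typically 0.2%. Luminescence from CellTiter-Glo 2.0, scaled between blank-well and DMSO-well means, served as viability. The single-agent IC50 was obtained from dose-response fits with a non-linear mixed effects model, each fit being a two-parameter logistic curve.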

MK-2206 = compound: NC1(c2ccc(-c3nc4ccn5c(=O)[nH]nc5c4cc3-c3ccccc3)cc2)CCC1 [MK-2206]; settings: max 10 µM
How it was run: as §1

AZD7648 = compound: Cc1cc2ncnn2cc1Nc1ncc2c(n1)n(C1CCOCC1)c(=O)n2C [AZD7648]; settings: max 10 µM
How it was run: as §1

[1] = compound: O=C(Nc1ccc2[nH]nc(-c3ccncc3)c2c1)[C@@H]1CCN(CC(=O)N2CCN(c3ccc(-c4ncccn4)cc3)CC2)C1; settings: max 5 µM
How it was run: as §1

AZD5363 = compound: C1CN(CCC1(C(=O)N[C@@H](CCO)C2=CC=C(C=C2)Cl)N)C3=NC=NC4=C3C=CN4 [AZD5363]; settings: max 10 µM
How it was run: as §1

AZD6738 = compound: C[C@@H]1COCCN1C2=NC(=NC(=C2)C3(CC3)[S@](=N)(=O)C)C4=C5C=CNC5=NC=C4 [AZD6738]; settings: max 10 µM
How it was run: as §1

Crizotinib = compound: C[C@@H](Oc1cc(-c2cnn(C3CCNCC3)c2)cnc1N)c1c(Cl)ccc(F)c1Cl [Crizotinib]; settings: max 10 µM
How it was run: as §1

AZD5991 = compound: Cc1c2c(nn1C)CSCc1cc(n(C)n1)CSc1cc(c3ccccc3c1)OCCCc1c(C(=O)O)n(C)c3c-2c(Cl)ccc13 [AZD5991]; settings: max 1 µM
How it was run: as §1

Taselisib = compound: Cc1nc(-c2cn3c(n2)-c2ccc(-c4cnn(C(C)(C)C(N)=O)c4)cc2OCC3)n(C(C)C)n1 [Taselisib]; settings: max 10 µM
How it was run: as §1

Lapatinib = compound: CS(=O)(=O)CCNCc1ccc(-c2ccc3ncnc(Nc4ccc(OCc5cccc(F)c5)c(Cl)c4)c3c2)o1 [Lapatinib]; settings: max 10 µM
How it was run: as §1

SG3199 = compound: CC1=CN2[C@@H](C1)C=NC3=CC(=C(C=C3C2=O)OC)OCCCCCOC4=C(C=C5C(=C4)N=C[C@@H]6CC(=CN6C5=O)C)OC [SG3199]; settings: max 0.001 µM
How it was run: as §1

5-Fluorouracil = compound: O=c1[nH]cc(F)c(=O)[nH]1 [5-Fluorouracil]; settings: max 20 µM
How it was run: as §1

AZD0156 = compound: CN(C)CCCOc1ccc(-c2ccc3ncc4c(c3c2)n(C2CCOCC2)c(=O)n4C)cn1 [AZD0156]; settings: max 3 µM
How it was run: as §1

Olaparib = compound: O=C(c1cc(Cc2n[nH]c(=O)c3ccccc23)ccc1F)N1CCN(C(=O)C2CC2)CC1 [Olaparib]; settings: max 10 µM
How it was run: as §1

Savolitinib = compound: C[C@@H](c1ccc2nccn2c1)n1nnc2ncc(-c3cnn(C)c3)nc21 [Savolitinib]; settings: max 1 µM
How it was run: as §1

Palbociclib = compound: CC(=O)c1c(C)c2cnc(Nc3ccc(N4CCNCC4)cn3)nc2n(C2CCCC2)c1=O [Palbociclib]; settings: max 10 µM
How it was run: as §1

AZD1775 = compound: C=CCn1c(=O)c2cnc(Nc3ccc(N4CCN(C)CC4)cc3)nc2n1-c1cccc(C(C)(C)O)n1 [AZD1775]; settings: max 3 µM
How it was run: as §1

AZD2811 = compound: CCN(CCO)CCCOc1ccc2c(Nc3cc(CC(=O)Nc4cccc(F)c4)[nH]n3)ncnc2c1 [AZD2811]; settings: max 1 µM
How it was run: as §1

Selumetinib = compound: Cn1cnc2c(F)c(Nc3ccc(Br)cc3Cl)c(C(=O)NOCCO)cc21 [Selumetinib]; settings: max 10 µM
How it was run: as §1

Carboplatin = compound: C1CC(C1)(C(=O)[O-])C(=O)[O-].N.N.[Pt+2] [Carboplatin]; settings: max 10 µM
How it was run: as §1

Dasatinib = compound: CC1=C(C(=CC=C1)Cl)NC(=O)C2=CN=C(S2)NC3=CC(=NC(=N3)C)N4CCN(CC4)CCO [Dasatinib]; settings: max 2 µM
How it was run: as §1

AZD4320 = compound: CN(CC[C@H](CSC1=CC=CC=C1)NC2=C(C=C(C=C2)S(=O)(=O)NC(=O)C3=CC=C(C=C3)N4CCC(CC4)[C@H](C5=CC=CC=C5C6=CC=C(C=C6)Cl)O)S(=O)(=O)C(F)(F)F)CCO [AZD4320]; settings: max 1 µM
How it was run: as §1

Prexasertib = compound: COc1cccc(OCCCN)c1-c1cc(Nc2cnc(C#N)cn2)n[nH]1 [Prexasertib]; settings: max 1 µM
How it was run: as §1

SN-38 = compound: CCc1c2c(nc3ccc(O)cc13)-c1cc3c(c(=O)n1C2)COC(=O)[C@]3(O)CC [SN-38]; settings: max 0.3 µM
How it was run: as §1

Gefitinib = compound: COc1cc2ncnc(Nc3ccc(F)c(Cl)c3)c2cc1OCCCN1CCOCC1 [Gefitinib]; settings: max 10 µM
How it was run: as §1

Etoposide = compound: COc1cc([C@@H]2c3cc4c(cc3[C@@H](O[C@@H]3O[C@@H]5CO[C@@H](C)O[C@H]5[C@H](O)[C@H]3O)[C@H]3COC(=O)[C@H]23)OCO4)cc(OC)c1O [Etoposide]; settings: max 10 µM
How it was run: as §1

Doxorubicin = compound: COc1cccc2c1C(=O)c1c(O)c3c(c(O)c1C2=O)C[C@@](O)(C(=O)CO)C[C@@H]3O[C@H]1C[C@H](N)[C@H](O)[C@H](C)O1 [Doxorubicin]; settings: max 1 µM
How it was run: as §1

Venetoclax = compound: CC1(C)CCC(CN2CCN(c3ccc(C(=O)NS(=O)(=O)c4ccc(NCC5CCOCC5)c([N+](=O)[O-])c4)c(Oc4cnc5[nH]ccc5c4)c3)CC2)=C(c2ccc(Cl)cc2)C1 [Venetoclax]; settings: max 1 µM
How it was run: as §1

AZD5153 = compound: COc1nnc2ccc(N3CCC(c4ccc(OCCN5CCN(C)C(=O)[C@H]5C)cc4)CC3)nn12 [AZD5153]; settings: max 1 µM
How it was run: as §1

SRA737 = compound: N#Cc1cnc(Nc2cc(NC[C@H]3CNCCO3)c(C(F)(F)F)cn2)cn1 [SRA737]; settings: max 10 µM
How it was run: as §1

Gemcitabine = compound: Nc1ccn([C@@H]2O[C@H](CO)[C@@H](O)C2(F)F)c(=O)n1 [Gemcitabine]; settings: max 0.3 µM
How it was run: as §1

AZD1390 = compound: CC(C)n1c(=O)n(C)c2cnc3cc(F)c(-c4ccc(OCCCN5CCCCC5)nc4)cc3c21 [AZD1390]; settings: max 0.3 µM
How it was run: as §1

AZD8186 = compound: C[C@@H](Nc1cc(F)cc(F)c1)c1cc(C(=O)N(C)C)cc2c(=O)cc(N3CCOCC3)oc12 [AZD8186]; settings: max 10 µM
How it was run: as §1

Alisertib = compound: COc1cc(Nc2ncc3c(n2)-c2ccc(Cl)cc2C(c2c(F)cccc2OC)=NC3)ccc1C(=O)O [Alisertib]; settings: max 10 µM
How it was run: as §1

Paclitaxel = compound: CC(=O)O[C@H]1C(=O)[C@@]2(C)[C@H]([C@H](OC(=O)c3ccccc3)[C@]3(O)C[C@H](OC(=O)[C@H](O)[C@@H](NC(=O)c4ccccc4)c4ccccc4)C(C)=C1C3(C)C)[C@]1(OC(C)=O)CO[C@@H]1C[C@@H]2O [Paclitaxel]; settings: max 3 µM
How it was run: as §1

Cell Line | IC50, cell viability 72 h (Trametinib) [nM] | IC50, cell viability 72 h (MK-2206) [nM] | IC50, cell viability 72 h (AZD7648) [nM] | IC50, cell viability 72 h [1] [nM] | IC50, cell viability 72 h (AZD5363) [nM] | IC50, cell viability 72 h (AZD6738) [nM] | IC50, cell viability 72 h (Crizotinib) [nM] | IC50, cell viability 72 h (AZD5991) [nM] | IC50, cell viability 72 h (Taselisib) [nM] | IC50, cell viability 72 h (Lapatinib) [nM] | IC50, cell viability 72 h (SG3199) [nM] | IC50, cell viability 72 h (5-Fluorouracil) [nM] | IC50, cell viability 72 h (AZD0156) [nM] | IC50, cell viability 72 h (Olaparib) [nM] | IC50, cell viability 72 h (Savolitinib) [nM] | IC50, cell viability 72 h (Palbociclib) [nM] | IC50, cell viability 72 h (AZD1775) [nM] | IC50, cell viability 72 h (AZD2811) [nM] | IC50, cell viability 72 h (Selumetinib) [nM] | IC50, cell viability 72 h (Carboplatin) [nM] | IC50, cell viability 72 h (Dasatinib) [nM] | IC50, cell viability 72 h (AZD4320) [nM] | IC50, cell viability 72 h (Prexasertib) [nM] | IC50, cell viability 72 h (SN-38) [nM] | IC50, cell viability 72 h (Gefitinib) [nM] | IC50, cell viability 72 h (Etoposide) [nM] | IC50, cell viability 72 h (Doxorubicin) [nM] | IC50, cell viability 72 h (Venetoclax) [nM] | IC50, cell viability 72 h (AZD5153) [nM] | IC50, cell viability 72 h (SRA737) [nM] | IC50, cell viability 72 h (Gemcitabine) [nM] | IC50, cell viability 72 h (AZD1390) [nM] | IC50, cell viability 72 h (AZD8186) [nM] | IC50, cell viability 72 h (Alisertib) [nM] | IC50, cell viability 72 h (Paclitaxel) [nM]
JHH-2 (Hepatocellular Carcinoma) | 181 | 5260 | > 10000 | 3440 | 4770 | 6800 | > 10000 | > 1000 | 3050 | > 10000 | > 1 | > 20000 | > 3000 | > 10000 | > 1000 | > 10000 | 1860 | > 1000 | > 10000 | > 10000 | 188 | > 1000 | 57.5 | 77.6 | > 10000 | > 10000 | > 1000 | > 1000 | > 1000 | > 10000 | > 300 | > 300 | 297 | > 10000 | 365
NCI-H441 (Lung Adenocarcinoma) | > 1000 | > 10000 | > 10000 | > 5000 | > 10000 | > 10000 | > 10000 | > 1000 | > 10000 | > 10000 | > 1 | > 20000 | > 3000 | > 10000 | > 1000 | > 10000 | > 3000 | > 1000 | > 10000 | > 10000 | > 2000 | > 1000 | 666 | 112 | > 10000 | > 10000 | > 1000 | > 1000 | > 1000 | > 10000 | 299 | > 300 | > 10000 | > 10000 | 2240
769-P (Kidney Carcinoma) | > 1000 | > 10000 | > 10000 | > 5000 | > 10000 | 1500 | 4590 | > 1000 | > 10000 | 5240 | > 1 | 12400 | > 3000 | > 10000 | > 1000 | 2870 | 874 | > 1000 | > 10000 | > 10000 | 253 | > 1000 | 40.6 | 159 | 8480 | > 10000 | 816 | > 1000 | 168 | 1540 | 24.3 | > 300 | > 10000 | > 10000 | 109
